In PubChem BioAssay (NCI):
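Grown in 96-well plates, cells were treated for 48 hours with each compound at five concentrations. Insufficient inhibition: endpoint recorded as highest concentration tested. GI50 = concentration required for 50% inhibition of growth. TGI: total growth inhibition.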

Key:
Assay in all cases: growth of human tumour cells (NCI), 48 h
[1] = tested on: 786-0 renal
[2] = tested on: A498 renal
[3] = tested on: A549 NSCLC
[4] = tested on: ACHN renal
[5] = tested on: BT-549 breast
[6] = tested on: CAKI-1 renal
[7] = tested on: CCRF-CEM leukemia
[8] = tested on: COLO 205 colon
[9] = tested on: DU-145 prostate
[10] = tested on: EKVX NSCLC
[11] = tested on: HCC-2998 colon
[12] = tested on: HCT-116 colon
[13] = tested on: HCT-15 colon
[14] = tested on: HL-60(TB) leukemia
[15] = tested on: HOP-62 NSCLC
[16] = tested on: HOP-92 NSCLC
[17] = tested on: HS 578T breast
[18] = tested on: HT29 colon
[19] = tested on: IGROV1 ovarian
[20] = tested on: K-562 leukemia
[21] = tested on: KM12 colon
[22] = tested on: LOX IMVI melanoma
[23] = tested on: M14 melanoma
[24] = tested on: MALME-3M melanoma
[25] = tested on: MCF7 breast
[26] = tested on: MDA-MB-231 breast
[27] = tested on: MDA-MB-435
[28] = tested on: MDA-MB-468 breast
[29] = tested on: MOLT-4 leukemia
[30] = tested on: NCI-H226 lung
[31] = tested on: NCI-H23 lung
[32] = tested on: NCI-H460 lung
[33] = tested on: NCI-H522 lung
[34] = tested on: OVCAR-3 ovarian
[35] = tested on: OVCAR-4 ovarian
[36] = tested on: OVCAR-5 ovarian
[37] = tested on: OVCAR-8 ovarian
[38] = tested on: PC-3 prostate
[39] = tested on: RPMI-8226 leukemia
[40] = tested on: RXF 393 renal
[41] = tested on: SF-268 CNS
[42] = tested on: SF-295 CNS
[43] = tested on: SF-539 CNS
[44] = tested on: SK-MEL-2 melanoma
[45] = tested on: SK-MEL-28 melanoma
[46] = tested on: SK-MEL-5 melanoma
[47] = tested on: SK-OV-3 ovarian
[48] = tested on: SN12C renal
[49] = tested on: SNB-19 CNS
[50] = tested on: SNB-75 CNS
[51] = tested on: SR leukemia
[52] = tested on: SW-620 colon
[53] = tested on: T-47D breast
[54] = tested on: TK-10 renal
[55] = tested on: U251 CNS
[56] = tested on: UACC-257 melanoma
[57] = tested on: UACC-62 melanoma
[58] = tested on: UO-31 renal

In the case of `O=C(/C=C/c1cccc(OCc2ccc(F)cc2)c1)c1nc2ccccc2[nH]1`, the GI50 [1] was 18.5 µM, the TGI [1] was 45.9 µM and the GI50 [2] was over 100 µM. The TGI [2] was over 100 µM, the GI50 [3] was 65.1 µM and the TGI [3] was over 100 µM. For the same molecule, the GI50 [4] was 47 µM, the TGI [4] was over 100 µM and the GI50 [5] was 18.4 µM. The TGI [5] was 46.4 µM, the GI50 [6] was 24.5 µM and the TGI [6] was over 100 µM. For the same molecule, the GI50 [7] was 10.9 µM, the TGI [7] was over 100 µM and the GI50 [8] was 39.8 µM. The TGI [8] was over 100 µM, the GI50 [9] was 29.5 µM and the TGI [9] was over 100 µM. The GI50 [10] was 41.3 µM, the TGI [10] was over 100 µM and the GI50 [11] was 15.5 µM. The TGI [11] was 30 µM, the GI50 [12] was 11.9 µM and the TGI [12] was 31.4 µM. It also gave a GI50 [13] of 13 µM, a TGI [13] of 28.6 µM and a GI50 [14] of 19.5 µM. For the same molecule, the TGI [14] was 62.4 µM, the GI50 [15] was 41.5 µM and the TGI [15] was over 100 µM. For the same molecule, the GI50 [16] was 8.64 µM, the TGI [16] was 67.5 µM and the GI50 [17] was 25.9 µM. For the same molecule, the TGI [17] was 95.7 µM, the GI50 [18] was 18.4 µM and the TGI [18] was 40.1 µM. For the same molecule, the GI50 [19] was 21.9 µM, the TGI [19] was 66.6 µM and the GI50 [20] was 8.34 µM. The TGI [20] was 78.8 µM, the GI50 [21] was 13.5 µM and the TGI [21] was 65.9 µM. It also gave a GI50 [22] of 11.4 µM, a TGI [22] of 25.4 µM and a GI50 [23] of 25.5 µM. The TGI [23] was 83.6 µM, the GI50 [24] was 69.4 µM and the TGI [24] was over 100 µM. The GI50 [25] was 4.52 µM, the TGI [25] was 32.5 µM and the GI50 [26] was 18.4 µM. The TGI [26] was 47.8 µM, the GI50 [27] was 21.2 µM and the TGI [27] was 59.9 µM. The GI50 [28] was 15 µM, the TGI [28] was 32.3 µM and the GI50 [29] was 21.9 µM. It also gave a TGI [29] of over 100 µM, a GI50 [30] of 51 µM and a TGI [30] of over 100 µM. The GI50 [31] was 20.5 µM, the TGI [31] was 57.1 µM and the GI50 [32] was 34.8 µM. The TGI [32] was over 100 µM, the GI50 [33] was 27.5 µM and the TGI [33] was over 100 µM. It also gave a GI50 [34] of 13.4 µM, a TGI [34] of 37.6 µM and a GI50 [35] of 66.5 µM. The TGI [35] was over 100 µM, the GI50 [36] was 29.3 µM and the TGI [36] was over 100 µM. For the same molecule, the GI50 [37] was 34.4 µM, the TGI [37] was over 100 µM and the GI50 [38] was 27.1 µM. The TGI [38] was over 100 µM, the GI50 [39] was 3090 nM and the TGI [39] was 10.8 µM. It also gave a GI50 [40] of 15 µM, a TGI [40] of 31.2 µM and a GI50 [41] of 37.7 µM. The TGI [41] was over 100 µM, the GI50 [42] was 32.7 µM and the TGI [42] was over 100 µM. The GI50 [43] was 17.6 µM, the TGI [43] was 32.2 µM and the GI50 [44] was 81.3 µM. The TGI [44] was over 100 µM, the GI50 [45] was 21.9 µM and the TGI [45] was 61.2 µM. The GI50 [46] was 31.7 µM, the TGI [46] was over 100 µM and the GI50 [47] was over 100 µM. For the same molecule, the TGI [47] was over 100 µM, the GI50 [48] was 62.9 µM and the TGI [48] was over 100 µM. The GI50 [49] was 25.3 µM, the TGI [49] was over 100 µM and the GI50 [50] was 34.2 µM. For the same molecule, the TGI [50] was over 100 µM, the GI50 [51] was 4.68 µM and the TGI [51] was over 100 µM. It also gave a GI50 [52] of 12.2 µM, a TGI [52] of 34.3 µM and a GI50 [53] of 29.2 µM. For the same molecule, the TGI [53] was over 100 µM, the GI50 [54] was 35.1 µM and the TGI [54] was over 100 µM. It also gave a GI50 [55] of 13.5 µM, a TGI [55] of 35.7 µM and a GI50 [56] of 66.2 µM. For the same molecule, the TGI [56] was over 100 µM, the GI50 [57] was 18.7 µM and the TGI [57] was over 100 µM. It also gave a GI50 [58] of 13.4 µM and a TGI [58] of 29 µM.
With `CN1CCc2c(sc3ncnc(N/N=C/c4ccc(Cl)cc4Cl)c23)C1` the GI50 [1] was 1.77 µM, the TGI [1] was 3.26 µM and the GI50 [2] was 3.22 µM. For the same molecule, the TGI [2] was 12.3 µM, the GI50 [3] was 3.73 µM and the TGI [3] was 16.9 µM. It also gave a GI50 [4] of 1.88 µM, a TGI [4] of 3.97 µM and a GI50 [5] of 3.97 µM. It also gave a TGI [5] of 16 µM, a GI50 [6] of 1.8 µM and a TGI [6] of 3.87 µM. For the same molecule, the GI50 [7] was 2.45 µM, the TGI [7] was 12.2 µM and the GI50 [8] was 1.66 µM. For the same molecule, the TGI [8] was 3.41 µM, the GI50 [9] was 6.47 µM and the TGI [9] was over 100 µM. For the same molecule, the GI50 [10] was 10.8 µM, the TGI [10] was over 100 µM and the GI50 [11] was 3.69 µM. It also gave a TGI [11] of 15.3 µM, a GI50 [12] of 3.04 µM and a TGI [12] of 11.4 µM. It also gave a GI50 [13] of 2.95 µM, a TGI [13] of 13.7 µM and a GI50 [14] of 2.12 µM. The TGI [14] was 6.11 µM, the GI50 [15] was 3.34 µM and the TGI [15] was 16.9 µM. It also gave a GI50 [16] of 1.95 µM, a TGI [16] of 5.96 µM and a GI50 [17] of 3.18 µM. For the same molecule, the TGI [17] was 27.3 µM, the GI50 [18] was 2.13 µM and the TGI [18] was 4.91 µM. The GI50 [19] was 6.89 µM, the TGI [19] was over 100 µM and the GI50 [21] was 4.3 µM. The TGI [21] was 25.7 µM, the GI50 [22] was 1.49 µM and the TGI [22] was 2.93 µM. The GI50 [23] was 1.71 µM, the TGI [23] was 3.45 µM and the GI50 [24] was 1.9 µM. The TGI [24] was 3.94 µM, the GI50 [25] was 2.36 µM and the TGI [25] was 14.7 µM. It also gave a GI50 [26] of 1.93 µM, a TGI [26] of 4.71 µM and a GI50 [27] of 2.11 µM. It also gave a TGI [27] of 5.44 µM, a GI50 [28] of 1.52 µM and a TGI [28] of 3.32 µM. It also gave a GI50 [29] of 2.9 µM, a TGI [29] of 18.4 µM and a GI50 [30] of 2.11 µM. It also gave a TGI [30] of 8.21 µM, a GI50 [31] of 2.81 µM and a TGI [31] of 10.7 µM. For the same molecule, the GI50 [32] was 3.2 µM, the TGI [32] was 13.3 µM and the GI50 [33] was 3.38 µM. The TGI [33] was 13.3 µM, the GI50 [34] was 1.34 µM and the TGI [34] was 2.88 µM. For the same molecule, the GI50 [35] was 1.79 µM, the TGI [35] was 3.81 µM and the GI50 [36] was 2.84 µM. The TGI [36] was 11.2 µM, the GI50 [37] was 2.38 µM and the TGI [37] was 7.62 µM. For the same molecule, the GI50 [38] was 3.96 µM, the TGI [38] was over 100 µM and the GI50 [39] was 2510 nM. For the same molecule, the TGI [39] was 11.8 µM, the GI50 [40] was 2.1 µM and the TGI [40] was 4.95 µM. For the same molecule, the GI50 [41] was 4.64 µM, the TGI [41] was over 100 µM and the GI50 [42] was 2.3 µM. It also gave a TGI [42] of 8.18 µM, a GI50 [43] of 1.81 µM and a TGI [43] of 3.28 µM. For the same molecule, the GI50 [44] was 3.59 µM, the TGI [44] was 13.9 µM and the GI50 [45] was 2.04 µM. The TGI [45] was 5.37 µM, the GI50 [46] was 1.66 µM and the TGI [46] was 3.72 µM. For the same molecule, the GI50 [47] was 3.04 µM, the TGI [47] was 12.5 µM and the GI50 [48] was 2.43 µM. The TGI [48] was 6.7 µM, the GI50 [49] was 4.01 µM and the TGI [49] was over 100 µM. It also gave a GI50 [50] of 1.54 µM, a TGI [50] of 4.2 µM and a GI50 [51] of 2.27 µM. For the same molecule, the TGI [51] was 9.19 µM, the GI50 [52] was 1.91 µM and the TGI [52] was 4.34 µM. For the same molecule, the GI50 [53] was 2.1 µM, the TGI [53] was 6.59 µM and the GI50 [54] was 2.53 µM. The TGI [54] was 6.36 µM, the GI50 [55] was 1.92 µM and the TGI [55] was 4.31 µM. The GI50 [56] was 2.86 µM, the TGI [56] was 9.96 µM and the GI50 [57] was 1.7 µM. The TGI [57] was 3.67 µM, the GI50 [58] was 1.47 µM and the TGI [58] was 2.83 µM.
